Here are results for ten molecules from ChEMBL document CHEMBL1201862, “PubChem BioAssay data set” (2004).

By EC50 is commonly meant the concentration at which the effect is half-maximal. For orientation: AC50 means the midpoint of the concentration-response curve, whichever way the signal moves.

The source made the active and inactive calls.

The nature of test [1]: Luminescence Cell-Based Dose Response to Identify Activators of 5'UTR Stem-Loop Driven Prion Protein mRNA Translation in H4-C Neuroglioblastoma Cells. [Related pubchem assays: 1829 (Project Summary), 1814 (Primary HTS)]. It counts as functional.
Test [2] in a line: Luminescence Cell-Based Dose Response HTS to Identify Activators of Luciferase Translation or Activity in H4 […] Cells. [Related pubchem assays: 1829 (Project Summary), 1814 (Primary HTS)]. It is filed as functional.
Test [3] deals with H4. Briefly: Luminescence Cell-Based Dose Response HTS to Identify Activators of 5'UTR Stem-Loop Driven Prion Protein mRNA Translation in H4 Neuroglioblastoma Cells. [Related pubchem assays: 1829 (Project Summary), 1814 (Primary HTS)]. It is filed as functional. To be noted: Homo sapiens.
The nature of test [4]: Luminescence Cell-Based Dose Response to Identify Activators of Luciferase Translation or Activity in H4-C Neuroglioblastoma Cells. [Related pubchem assays: 1829 (Project Summary), 1814 (Primary HTS)]. It counts as functional.
Test [5] in a line: Luminescence Cell-Based Dose Confirmation to Identify Activators of 5'UTR Stem-Loop Driven Alpha-Synuclein mRNA Translation in H4 Neuroglioblastoma Cells. [Related pubchem assays: 1829 (Project Summary), 1814 (Primary HTS)]. It counts as functional.
For test [6], the target named is T1, Rac GTPase-activating protein 1 (Homo sapiens, UniProt Q9H0H5).
T1 sequence (Q9H0H5 whole entry): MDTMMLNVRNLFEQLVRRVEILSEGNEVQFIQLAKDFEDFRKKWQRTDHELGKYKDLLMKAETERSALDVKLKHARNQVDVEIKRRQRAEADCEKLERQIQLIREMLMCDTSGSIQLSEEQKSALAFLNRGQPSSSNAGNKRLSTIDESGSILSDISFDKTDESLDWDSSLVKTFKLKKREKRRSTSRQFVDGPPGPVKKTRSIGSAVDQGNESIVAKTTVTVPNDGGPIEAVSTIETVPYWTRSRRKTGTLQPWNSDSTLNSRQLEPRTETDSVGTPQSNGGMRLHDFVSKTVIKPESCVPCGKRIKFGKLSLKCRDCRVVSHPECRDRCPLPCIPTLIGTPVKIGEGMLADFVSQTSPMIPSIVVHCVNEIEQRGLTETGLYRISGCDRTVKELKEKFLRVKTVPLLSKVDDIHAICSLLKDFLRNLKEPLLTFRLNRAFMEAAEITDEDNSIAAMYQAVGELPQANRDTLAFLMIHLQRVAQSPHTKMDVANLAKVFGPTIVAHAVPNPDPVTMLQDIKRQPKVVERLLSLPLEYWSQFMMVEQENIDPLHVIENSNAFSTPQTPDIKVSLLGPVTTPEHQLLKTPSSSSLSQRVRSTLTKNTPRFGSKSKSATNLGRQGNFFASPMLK
Briefly: MgcRacGAP GTPase-activating activity inhibitors, confirmation, biochemical, ADP Hunter fluorescence, primary and confirmatory (AID 624330). It counts as functional.

Test [7] concerns the target T2, Oxysterols receptor LXR-beta (Homo sapiens, UniProt P55055).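 Note: agonist activity at LXR measured by a cell-based luminescence readout across a dose range, run as a counterscreen for daf-12 agonists; HEK293 cells with Gal4-LXR fusion and GAL4-driven luciferase reporter; potency for activation of Gal4-LXR reporter so compounds are agonists.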
T2 sequence (P55055 whole entry): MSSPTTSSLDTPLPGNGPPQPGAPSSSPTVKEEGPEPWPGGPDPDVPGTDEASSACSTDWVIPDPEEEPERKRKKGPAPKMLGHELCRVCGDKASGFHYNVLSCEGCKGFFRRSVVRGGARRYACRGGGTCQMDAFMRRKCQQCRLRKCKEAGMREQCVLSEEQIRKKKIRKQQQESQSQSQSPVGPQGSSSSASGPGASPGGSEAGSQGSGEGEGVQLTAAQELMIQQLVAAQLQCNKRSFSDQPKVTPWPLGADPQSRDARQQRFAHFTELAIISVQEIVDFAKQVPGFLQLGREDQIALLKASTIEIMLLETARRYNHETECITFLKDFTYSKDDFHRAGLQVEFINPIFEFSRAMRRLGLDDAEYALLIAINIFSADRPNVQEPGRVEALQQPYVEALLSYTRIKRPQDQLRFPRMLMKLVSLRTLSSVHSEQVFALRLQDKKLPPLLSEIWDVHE
It is filed as functional, cell-based.

Test [8] can be described thus: ADAM10 inhibitors, peptide cleavage, dose response, biochemical, QFRET (AID 743254).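 Note: ADAM10 enzyme with the DM2 quenched FRET peptide as substrate; EDANS fluorescence gain as the protease cuts the substrate; inhibitor potency against ADAM10 proteolytic activity.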
Test [9] has as its target Disintegrin and metalloproteinase domain-containing protein 17 (Homo sapiens, UniProt P78536). The experiment in a line: ADAM17 protease inhibitors, dose response, counter-screen for ADAM10 exosite inhibitor project, biochemical, quenched FRET substrate (AID 743253). (Counterscreens check selectivity or assay interference.)
The nature of test [10]: A cytotoxicity screen of small molecule inhibitors of the PhoP region in Salmonella typhi identified in the primary screen. [Related pubchem assays: 1850, 1864, 1985 ]. It counts as functional.
In test [11] the test system is INS1. Briefly: beta cell apoptosis inhibitors, cytokine rescue, dose response, luminescence, retest (AID 449756).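 Note: cell death triggered by IL-1 beta plus TNF-alpha plus IFN-gamma mixture; protective hits raise ATP signal compared with cytokine alone wells.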 It is filed as functional, cell-based. As to conditions: Rattus norvegicus.
Test [12] in a line: Shn3 3'UTR reporter inhibitors, dose response, cell-based, Clone20 osteoblasts, firefly luciferase, cherry-picked (AID 624132).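 Note: firefly luciferase luminescence from reporter carrying the Shn3 3'UTR in osteoblasts.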 It is filed as functional.
A short description of test [13]: HepG2 cell cytotoxicity, dose response, cytotoxicity control for Shn3 inhibitor project, CellTiter-Glo, cherry-picked (AID 624134). It counts as functional, cell-based.
The nature of test [14]: control 3'UTR Renilla luciferase suppression, dose response, counter-screen for Shn3 inhibitor project, cell-based, Clone20-Shn3RL, cherry-picked (AID 624133). It is filed as functional.
For test [15], the target named is Protein Wnt-3a (Mus musculus, UniProt P27467). The experiment in a line: Wnt3a-driven reporter signaling inhibition, dose response, selectivity assay for Gli-SUFU antagonist project, Wnt-LIGHT cells, luminescence (AID 651570).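 Note: Wnt-LIGHT reporter cells stimulated with conditioned medium from Wnt3a-producing cells.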 As to conditions: read-out: IC50_Mean. It counts as functional.
Test [16] can be described thus: inhibitors of HIV Env-driven cell fusion, dose response, cherry-pick (AID 652057). It counts as functional, cell-based.
Test [17] can be described thus: CEM21 lymphoblast cell cytotoxicity, dose response, cytotoxicity control for viral fusion inhibitor project, CellTiter-Glo luminescence, cherry-picked (AID 652042).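 Note: potency for signal decrease meaning cytotoxicity.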 It is filed as functional, cell-based. On the technique in general: ATP-based viability assays read luminescence as a measure of living cells.
Test [18] in a line: ZM109 Env clade C HIV-1 fusion inhibitors, dose response, HeLa effector, CEM target cells, luciferase, cherry-pick (AID 652058). It counts as functional, cell-based.
The nature of test [19]: inhibitors of clade B AD8 Env fusion, dose response, cell-based, cherry-pick (AID 652062).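 Note: luciferase signal from cell-cell fusion driven by HIV-1 clade B AD8 Env; potency is for inhibitors of fusion seen as a drop in luminescence.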 It counts as functional.
Test [20] is described as follows: reduction of Shn3 3'UTR firefly luciferase signal, dose response, Schnurri-3 inhibitor project, cell-based, Clone20 osteoblasts, cherry-pick, set 2 (AID 720490).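 Note: actives lower the luminescence signal as inhibitors.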 It is filed as functional.
Test [21] in a line: Late stage counterscreen for inhibitors of Trypanosoma brucei methionyl tRNA synthetase (MetRS): Luminescence-based cell-based high throughput dose response assay to identify compounds that are cytotoxic to Jurkat human T lymphocyte cells. It counts as functional.
The target of test [22] is Voltage-dependent T-type calcium channel subunit alpha-1H (Homo sapiens, UniProt O95180). It counts as functional.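 Note: channel activity triggered by adding a high calcium stimulation buffer.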
Test [23] concerns the target 1-phosphatidylinositol 4,5-bisphosphate phosphodiesterase gamma-1 (Homo sapiens, UniProt P19174). The experiment in a line: Counterscreen for inhibitors of phospholipase C isozymes (PLC-B3): Fluorescence-based biochemical high throughput dose response assay to identify inhibitors of phospholipase C isozymes (PLC-gamma1).
The target in test [24] is 1-phosphatidylinositol 4,5-bisphosphate phosphodiesterase beta-3 (Homo sapiens, UniProt Q01970). Briefly: Fluorescence-based biochemical high throughput dose response assay to identify inhibitors of phospholipase C isozymes (PLC-B3).
The target of test [25] is Paired box protein Pax-8 (Homo sapiens, UniProt Q06710). Briefly: inhibitors of PAX8-driven TPO luciferase reporter, dose response, RMG-I cells, cherry-pick (AID 687027).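 Note: luciferase reporter driven by Pax8 target thyroperoxidase promoter measured by SteadyGlo luminescence.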 It counts as functional, cell-based. (In a reporter assay the amount or activity of a reporter protein is the signal.)
Test [26] in a line: A2780 ovarian cancer cell cytotoxicity, dose response, cytotoxicity control, plate reader, dry powder samples (AID 743046). It is filed as functional, cell-based.
A short description of test [27]: inhibitors of CMV-promoter luciferase reporter, dose response, counter-screen for Pax8 inhibitor project, cell-based, HEK293, luminescence, dry powder (AID 743020). It counts as functional.
Test [28] is described as follows: NIH:OVCAR-3 ovarian cancer cell cytotoxicity, dose response, PAX8 inhibitor project, plate reader, dry powder samples (AID 743044). It is filed as functional, cell-based.
The nature of test [29]: IGROV1 ovarian cancer cell cytotoxicity, dose response, PAX8 inhibitor project, plate reader, dry powder samples (AID 743043). It counts as functional, cell-based. As to conditions: IGROV-1.
Test [30] can be described thus: cytotoxicity in OVCAR8 ovarian cancer cells, dose response, PAX8 project, cell-based, plate reader, dry powder samples (AID 743197). It is filed as functional. As to conditions: OVCAR-8.

Paired box protein Pax-8, sequence (Q06710 whole entry): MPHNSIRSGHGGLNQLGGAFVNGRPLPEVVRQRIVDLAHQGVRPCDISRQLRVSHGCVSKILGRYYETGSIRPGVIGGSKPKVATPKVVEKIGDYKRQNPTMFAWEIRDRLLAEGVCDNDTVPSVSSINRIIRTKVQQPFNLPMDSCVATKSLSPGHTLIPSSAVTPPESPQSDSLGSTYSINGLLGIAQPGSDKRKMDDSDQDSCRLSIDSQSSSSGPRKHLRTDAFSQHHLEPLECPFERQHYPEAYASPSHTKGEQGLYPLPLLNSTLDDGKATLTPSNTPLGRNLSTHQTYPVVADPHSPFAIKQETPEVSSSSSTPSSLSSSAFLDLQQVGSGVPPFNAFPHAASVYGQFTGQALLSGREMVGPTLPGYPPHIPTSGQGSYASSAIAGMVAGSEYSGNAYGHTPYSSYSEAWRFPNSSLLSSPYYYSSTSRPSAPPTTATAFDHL
Disintegrin and metalloproteinase domain-containing protein 17, sequence (P78536 whole entry, the tested form may be a part): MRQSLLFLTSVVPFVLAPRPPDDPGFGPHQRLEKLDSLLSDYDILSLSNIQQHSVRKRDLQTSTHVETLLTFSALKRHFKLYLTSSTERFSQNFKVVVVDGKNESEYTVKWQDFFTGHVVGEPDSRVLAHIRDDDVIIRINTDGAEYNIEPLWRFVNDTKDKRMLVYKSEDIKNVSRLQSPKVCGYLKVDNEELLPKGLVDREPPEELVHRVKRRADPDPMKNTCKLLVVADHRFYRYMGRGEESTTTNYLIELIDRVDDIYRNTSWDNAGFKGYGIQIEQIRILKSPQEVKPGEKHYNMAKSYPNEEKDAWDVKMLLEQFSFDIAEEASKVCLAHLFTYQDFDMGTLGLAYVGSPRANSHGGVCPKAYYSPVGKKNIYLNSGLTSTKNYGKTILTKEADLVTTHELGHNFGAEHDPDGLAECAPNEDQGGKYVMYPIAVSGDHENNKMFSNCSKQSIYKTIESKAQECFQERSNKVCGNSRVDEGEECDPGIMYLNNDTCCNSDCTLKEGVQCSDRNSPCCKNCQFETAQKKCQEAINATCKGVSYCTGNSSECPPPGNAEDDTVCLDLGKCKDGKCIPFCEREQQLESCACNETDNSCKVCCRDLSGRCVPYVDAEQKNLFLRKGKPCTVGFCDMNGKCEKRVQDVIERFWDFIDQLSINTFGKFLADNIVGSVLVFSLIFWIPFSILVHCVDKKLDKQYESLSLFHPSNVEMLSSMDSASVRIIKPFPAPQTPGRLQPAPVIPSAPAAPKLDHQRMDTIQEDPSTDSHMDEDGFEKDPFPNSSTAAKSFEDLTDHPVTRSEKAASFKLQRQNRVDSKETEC
Protein Wnt-3a, sequence (P27467 whole entry, the tested form may be a part): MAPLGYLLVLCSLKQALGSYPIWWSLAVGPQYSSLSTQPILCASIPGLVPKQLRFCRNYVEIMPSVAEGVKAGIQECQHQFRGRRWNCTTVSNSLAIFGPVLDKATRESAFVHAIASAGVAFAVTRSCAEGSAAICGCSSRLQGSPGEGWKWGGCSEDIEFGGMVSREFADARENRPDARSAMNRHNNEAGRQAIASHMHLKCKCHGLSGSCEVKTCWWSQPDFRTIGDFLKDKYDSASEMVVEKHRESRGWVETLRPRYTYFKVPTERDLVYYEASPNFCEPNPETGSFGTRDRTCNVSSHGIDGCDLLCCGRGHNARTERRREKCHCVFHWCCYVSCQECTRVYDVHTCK
1-phosphatidylinositol 4,5-bisphosphate phosphodiesterase gamma-1, sequence (P19174 whole entry): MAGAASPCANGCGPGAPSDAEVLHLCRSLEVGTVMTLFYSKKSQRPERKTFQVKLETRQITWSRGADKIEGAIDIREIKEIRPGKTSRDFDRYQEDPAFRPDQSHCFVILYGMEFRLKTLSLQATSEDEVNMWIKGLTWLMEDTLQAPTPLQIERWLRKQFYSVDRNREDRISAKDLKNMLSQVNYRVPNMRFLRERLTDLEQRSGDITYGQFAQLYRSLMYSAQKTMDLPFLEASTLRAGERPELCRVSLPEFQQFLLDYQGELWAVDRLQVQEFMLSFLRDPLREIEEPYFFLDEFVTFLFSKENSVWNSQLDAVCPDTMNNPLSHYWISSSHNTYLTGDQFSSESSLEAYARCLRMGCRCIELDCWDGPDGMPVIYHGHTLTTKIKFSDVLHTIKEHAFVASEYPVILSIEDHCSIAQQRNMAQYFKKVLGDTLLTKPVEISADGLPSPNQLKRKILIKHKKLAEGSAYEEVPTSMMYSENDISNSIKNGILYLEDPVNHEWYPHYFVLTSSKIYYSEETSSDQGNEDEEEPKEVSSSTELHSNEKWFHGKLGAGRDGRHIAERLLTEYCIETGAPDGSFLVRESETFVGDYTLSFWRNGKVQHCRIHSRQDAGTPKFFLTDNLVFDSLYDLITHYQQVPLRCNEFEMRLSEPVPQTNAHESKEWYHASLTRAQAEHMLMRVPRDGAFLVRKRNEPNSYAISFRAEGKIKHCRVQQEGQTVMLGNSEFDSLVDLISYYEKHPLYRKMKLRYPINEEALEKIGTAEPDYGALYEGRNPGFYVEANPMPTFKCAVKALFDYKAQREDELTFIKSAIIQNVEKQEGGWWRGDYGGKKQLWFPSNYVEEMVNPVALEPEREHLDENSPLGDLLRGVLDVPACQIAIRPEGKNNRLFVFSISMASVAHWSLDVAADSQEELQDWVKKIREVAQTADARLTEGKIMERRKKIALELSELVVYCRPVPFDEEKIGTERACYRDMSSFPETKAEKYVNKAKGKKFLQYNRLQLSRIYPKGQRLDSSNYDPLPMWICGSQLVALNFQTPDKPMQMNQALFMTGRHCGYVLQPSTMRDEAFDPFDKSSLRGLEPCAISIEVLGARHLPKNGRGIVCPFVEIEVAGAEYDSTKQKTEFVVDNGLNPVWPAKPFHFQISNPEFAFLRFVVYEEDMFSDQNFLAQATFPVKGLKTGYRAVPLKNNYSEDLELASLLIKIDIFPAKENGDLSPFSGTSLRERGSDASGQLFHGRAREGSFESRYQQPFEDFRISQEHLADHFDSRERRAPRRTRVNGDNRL
1-phosphatidylinositol 4,5-bisphosphate phosphodiesterase beta-3, sequence (Q01970 whole entry): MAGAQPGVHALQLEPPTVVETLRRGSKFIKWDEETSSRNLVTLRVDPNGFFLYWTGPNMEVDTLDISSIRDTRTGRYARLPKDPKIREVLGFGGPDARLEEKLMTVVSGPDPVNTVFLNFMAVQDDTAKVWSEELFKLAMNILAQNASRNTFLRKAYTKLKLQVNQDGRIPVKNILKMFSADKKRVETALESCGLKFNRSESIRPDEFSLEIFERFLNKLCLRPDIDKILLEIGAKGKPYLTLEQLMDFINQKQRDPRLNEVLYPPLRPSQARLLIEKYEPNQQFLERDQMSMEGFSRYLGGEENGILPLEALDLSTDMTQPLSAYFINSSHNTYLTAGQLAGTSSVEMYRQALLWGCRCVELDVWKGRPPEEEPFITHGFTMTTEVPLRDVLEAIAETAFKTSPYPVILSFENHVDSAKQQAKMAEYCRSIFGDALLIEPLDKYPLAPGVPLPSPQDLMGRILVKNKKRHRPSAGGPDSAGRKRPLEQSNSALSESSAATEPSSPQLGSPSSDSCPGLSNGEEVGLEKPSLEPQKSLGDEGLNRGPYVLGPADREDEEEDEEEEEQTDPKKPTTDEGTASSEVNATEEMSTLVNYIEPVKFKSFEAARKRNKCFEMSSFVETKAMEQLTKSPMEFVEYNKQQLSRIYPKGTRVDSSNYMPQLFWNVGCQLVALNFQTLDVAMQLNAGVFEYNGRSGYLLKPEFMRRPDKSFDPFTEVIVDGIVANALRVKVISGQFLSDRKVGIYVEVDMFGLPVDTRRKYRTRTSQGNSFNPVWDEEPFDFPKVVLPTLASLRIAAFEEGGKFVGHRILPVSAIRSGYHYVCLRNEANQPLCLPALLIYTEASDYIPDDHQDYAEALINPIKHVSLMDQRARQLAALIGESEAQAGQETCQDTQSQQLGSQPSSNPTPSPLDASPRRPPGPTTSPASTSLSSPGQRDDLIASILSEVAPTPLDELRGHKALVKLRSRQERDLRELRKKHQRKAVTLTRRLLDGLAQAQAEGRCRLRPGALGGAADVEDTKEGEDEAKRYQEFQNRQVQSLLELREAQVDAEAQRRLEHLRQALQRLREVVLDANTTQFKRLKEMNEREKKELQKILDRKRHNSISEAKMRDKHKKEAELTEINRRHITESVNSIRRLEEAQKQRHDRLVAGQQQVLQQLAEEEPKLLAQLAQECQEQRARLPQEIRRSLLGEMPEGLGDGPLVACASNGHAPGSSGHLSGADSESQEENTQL

Regarding `CN1C(=O)/C(=C/C=C2\SCCN2C)N(C)C1=S`, the EC50 in test [1] is 0.383 µM (active); in [2], < 0.1 µM (active); in test [3], > 120 µM (inconclusive); in test [4] it was 0.41 µM (active); in [5], 0.766 µM (active); in test [7] it was > 67.6 µM (inactive). Further, the IC50 in test [6] is 20 µM (active).

Consider `C=CCN(c1ccccc1OC)S(=O)(=O)c1cccc(C(=O)OCC(=O)c2c[nH]c3ccccc23)c1`, for which the IC50 in [8] and in test [9] was > 69.5 µM (inactive) in each case.

`CCN(CC)c1ccc(NC(=O)COC(=O)CSc2ccc(Br)cc2C)cc1`: the values for the IC50 in test [8] and in test [9] were > 7.72 µM (active) and > 69.5 µM (inactive), respectively.

In the case of `CCCCOCCCNc1[nH]cnc2c3ccccc3nc1-2`, the concentration for a half-maximal effect (EC50) in test [10] was > 50 µM (active). Besides, the AC50 in test [11] is 1.78 µM (active); in test [12] it was 1.05 µM (active); in [13], 22.9 µM (active); in test [14], 10.9 µM (active); in test [16], 33.8 µM (active); in [17], 46.3 µM (active). Besides, the AC50 in test [18] was 14.8 µM (active); in test [19], 5.02 µM (active); in [20] it was 1.48 µM (active). Moreover, the IC50 in test [15] is 0.843 µM (active).

Take `O=C(NCc1nc2ccccc2[nH]1)C1=C[C@H](c2ccc(Br)cc2)C[C@H](OCc2ccc(CO)cc2)O1`: in [21], the IC50 was 81.3 µM (inactive).

With `Cc1cccc(-c2noc(CN(C(=O)C(c3ccccc3)c3ccccc3)C(C)C)n2)c1`, the concentration for a half-maximal effect (EC50) in [22] was 6.72 µM (active). Moreover, the AC50 in test [12] was 6.27 µM (active); in test [20] it was 12.3 µM (active).

`CCCCN=C(S)NNC(=O)c1csc(C)c1`: the IC50 in [23] and in test [24] was > 122 µM (inactive) throughout.

Turning to `COc1ccc2c3c(n(C)c2c1)[C@H](CO)N(Cc1ccccc1)CC31CCN(S(=O)(=O)c2ccc(C)cc2)CC1`, the AC50 was 6.41 µM (active) in test [25]; 17.4 µM (active) in test [26]; 14.3 µM (active) in test [27]; 17.8 µM (active) in test [28]; 51.1 µM (active) in test [29]; 13.2 µM (active) in [30].

With `C[C@H]1CN([C@@H](C)CO)C(=O)Cc2cc(NC(=O)Nc3ccc4c(c3)OCO4)ccc2O[C@@H]1CN(C)CC1CCCCC1`, the AC50 in test [25] was 31.2 µM (active); in test [26], 22.2 µM (active); in test [30] it was 62.9 µM (active).

Regarding `CCO[C@@H]1OC(C(=O)NCc2nc3ccccc3[nH]2)=C[C@H](c2ccc(Br)cc2)[C@H]1CCCO`, in test [21], the IC50 is 45.4 µM (inactive).
